Measured values as given in patent US7985538B2, “Drug resistance and methods of reversing” (Yale University, priority 2006, dated 2011).

Key:
MyD88+ R182 EOC cells = assay: IL-6 secretion in R182 EOC cells with and without MyD88 RNAi; format: cell-based, human
Procedure: EOC cells were transiently transfected with a GFP-expressing plasmid containing silencing RNA (siRNA) directed against MyD88 (psiRNA-hMyD88, Invivogen, San Diego, Calif.). Briefly, 1.5×10^5 cells were seeded in 60 mm dishes and cultured overnight until 40-60% confluent. Cells were then transfected for 18 h with 2 μg of DNA using Fugene 6 Transfection reagent (Roche Applied Science, Indianapolis, Ind.). Ratio of Fugene to DNA was 3:1. Following transfection, cells were allowed to recover in growth media for 24 h prior to treatment.
In order to confirm that in MyD88^+ EOC cells, the ligation of TLR-4 by either LPS or paclitaxel induces the production of cytokines, Applicants inhibited its expression in MyD88^+ R182 EOC cells using RNA interference technology. […] These findings confirmed that the cytokine response in EOC cells following LPS and paclitaxel treatment involves signaling through MyD88.

normal OSE cells = assay: CASPASE GLO 3/7 apoptosis assay, normal OSE cells; format: cell-based; conditions: 2 μM paclitaxel, 24 h
MyD88+ cells = assay: Western blot of XIAP, pAkt and total Akt in MyD88+ cells; format: cell-based, human
Description: Twenty μg protein were denatured in sample buffer (2.5% SDS, 10% glycerol, 5% β-mercapto-ethanol, 0.15 M Tris (pH=6.8) and 0.01% bromophenol blue) and subjected to 12% SDS-PAGE as previously described (17). Antibodies used: rabbit anti-TLR-4 (Santa Cruz Biotechnology, Santa Cruz, Calif., 1:1,000), rabbit anti-MyD88 (eBiosciences, San Diego, Calif., 1:1,000), mouse anti-NF-κB (Santa Cruz Biotechnology, 1:1,000), mouse anti-DNA topoisomerase 1 (BD Biosciences, San Jose, Calif., 1:500) and, rabbit anti-actin (Sigma Chemical Co., 1:10,000). Proteins were visualized using enhanced chemiluminescence (Pierce Biotechnology).
TLR-4 ligation through NF-κB and inflammatory molecules promotes cell survival by the induction of the expression of anti-apoptotic proteins (24, 25). The expression of X-linked inhibitor of apoptosis (XIAP), a major inhibitor of caspase-3 and 9, and the expression of Akt has been associated with tumor growth and chemoresistance in ovarian cancer cells (26-28). Therefore, Applicants evaluated the expression of XIAP and phosphorylated Akt (pAkt) following paclitaxel treatment in MyD88^+ cells. […] Similarly, XIAP levels increased 2 h post-treatment. In contrast, no change on the levels of total Akt was observed.

A2780 and CP70 EOC cells = assay: Caspase-3/7 activity in A2780 and CP70 cells, wt or transfected with pUNO-hMyD88; format: cell-based, human; conditions: 48 h
Procedure: (§1) Ten μg of protein in a 50 μl total volume was mixed with 50 μl of equilibrated reagents of a caspase assay kit, i.e., the CASPASE GLO™ 3/7 Assay (Promega). After incubating at room temperature for 1 h, luminescence was measured using TD 20/20 Luminometer (Turner Designs, Sunnyvale, Calif.). Blank values were subtracted and fold-increase in activity was calculated based on activity measured from untreated cells. Each sample was measured in triplicate.
Transfection was performed using a plasmid containing the full-length cDNA (SEQ ID NO:3) of human MyD88 (pUNO-hMyD88, Invivogen), which encodes the amino acid sequence of SEQ ID NO:4. CP70 and A2780 cells were grown in […] surface tissue culture flasks until they reached 50% confluence. 12 μl of the Fugene 6 Transfection reagent was added into 4 ml of serum-free media for each transfection. […]
Because Applicants observed a positive correlation between MyD88 expression and resistance to paclitaxel-induced apoptosis, their next objective was to determine whether the induction of MyD88 expression in EOC might confer resistance to paclitaxel. […] After 24 h of transfection, the cells were either left untreated or treated with 2 μM paclitaxel for 48 h and caspase-3/7 activity was determined.

MyD88+ EOC cells [1] = assay: Cytokine ELISA (GRO-α, MCP-1, IL-6), MyD88+ EOC cells; format: cell-based, human; conditions: increasing concentrations of paclitaxel, 24 h, 48 h, 72 h; dose- and time-dependent, p<0.01
Procedure: (§2) The concentrations of the IL-6, GRO-α, MCP-1 were evaluated by ELISA, according to the manufacturer's instructions. (R&D Systems, Minneapolis, Minn.)
(§3) EOC cell lines were treated for 48 h with 10 μg/ml LPS and the levels of GRO-α, MCP-1, and IL-6 were determined. […] Unstimulated MyD88^+ EOC cells constitutively express all the cytokines tested. […] In contrast, unstimulated MyD88^− EOC cells secreted undetectable or low levels of these pro-inflammatory cytokines, which were not affected by TLR-4 ligation with LPS.
(§4) MyD88^+ and MyD88^− EOC cells were treated with increasing concentrations of paclitaxel for 24 h, 48 h, and 72 h and levels of IL-6 secretion were determined by ELISA.

MyD88+ EOC cells [2] = assay: CELLTITER96 cell viability / proliferation assay, MyD88+ EOC cells; format: cell-based, human; conditions: EOC cells that express MyD88
Procedure: Cell viability was evaluated using a cell proliferation assay, i.e., the CELLTITER96® Aqueous One Solution Cell Proliferation Assay (Promega, Madison, Wis.) according to the manufacturer's instructions. The values from the treated cells were compared with the values generated from the untreated cells and reported as percent viability. Each experiment was performed at least three times.
Once the expression of TLR-4 in EOC samples was established, Applicants evaluated the biological function of this receptor and also evaluated the significance of MyD88 status. EOC cell lines expressing MyD88 (MyD88^+) and those shown to lack MyD88 (MyD88^−) were treated with increasing concentrations of LPS (one of the main ligands for TLR-4) for 24 h and 48 h and cell viability was determined using a cell proliferation assay, i.e., the CELLTITER96® AQueous One Solution Cell Proliferation Assay. […] Thus, LPS induced a time- and dose-dependent increase in cell proliferation in cells expressing MyD88, but not in MyD88− EOC cells. LPS had no effect on viability of OSE cell, which are also negative for MyD88 expression.

MyD88- EOC cell lines = assay: CASPASE GLO 3/7 apoptosis assay, MyD88- EOC cell lines; format: cell-based, human; conditions: 2 μM paclitaxel, 24 h
Procedure: as §1
(§5) Paclitaxel has been reported to be a potential ligand to TLR-4 (23). […] EOC cells were treated with 2 μM paclitaxel for 24 h and apoptosis was determined by measuring the activity of caspases-3 and -7 using a caspase assay kit CASPASE GLO™ 3/7 Assay.

MyD88+ EOC cells [3] = assay: Cytokine microarray (Fast Quant), MyD88+ EOC cells; format: cell-based, human; conditions: 48 h; LPS 10 μg/ml or paclitaxel 20 μM
Procedure: (§6) A panel of 10 cytokines, pro and anti-inflammatory, was simultaneously evaluated using the Fast Quant Human II kit (Whatman/Schleicher & Schuell) according to the manufacturer instructions. The signal was detected using the Genepix 4000 microarray reader and the results were analyzed using the Genepix 3.0 software (Whatman/Schleicher & Schuell).
(§7) To further characterize the effect of paclitaxel and LPS on the secretion of several cytokines and chemokines in MyD88^+ and MyD88^− EOC cells, Applicants used a high throughput microarray system (Whatman/Schleicher & Schull) to measure the levels of IL-6, IL-4, IL-8, IL-12, RANTES, and IFN-γ. Cytokine secretion was measured in the supernatants of EOC cells following 48 h incubation with either LPS (10 μg/ml) or paclitaxel (20 μM).

MyD88+ EOC cells [4] = assay: CASPASE GLO 3/7 apoptosis assay, MyD88+ EOC cells; format: cell-based, human; conditions: 2 μM paclitaxel, 24 h
Procedure: as §1, §5

A2780 EOC cells = assay: Caspase-3/7 activity in A2780 cells, wt or MyD88 transfected, carboplatin versus paclitaxel; format: cell-based, human; conditions: 100 μg/ml carboplatin or 2 μM paclitaxel, 48 hours; for caspase-3/7 activity: wildtype A2780
Procedure: as §1
Transfection was performed using a plasmid containing the full-length cDNA (SEQ ID NO:3) of human MyD88 (pUNO-hMyD88, Invivogen), which encodes the amino acid sequence of SEQ ID NO:4. CP70 and A2780 cells were grown in […] surface tissue culture flasks until they reached 50% confluence. 12 μl of the Fugene 6 Transfection reagent was added into 4 ml of serum-free media for each transfection. After 5 minutes of incubation at room temperature, 1 μg of the plasmid pUNO-hMyD88 was added to the serum-free media containing Fugene 6 Transfection Reagent, and the mixtures were incubated at room temperature for another 15 minutes. The growth media in each flask was discarded, and the corresponding Fugene 6-plasmid-serum-free-media mixture was added and the flasks were incubated overnight at 37° C. 5% CO2. The transfection media was replaced with fresh growth media the second day and the cells were allowed to recover for 24 hours post transfection before treatments.
Applicants also determined whether the expression of MyD88 confers resistance that is specific to paclitaxel. Wildtype (wt) A2780 EOC cells (carboplatin sensitive) and A2780 EOC cells transfected with MyD88 were treated with 100 μg/ml carboplatin or 2 μM paclitaxel for 48 hours. Apoptosis was determined by measuring caspase-3/7 activity.

MyD88- EOC cells [5] = assay: Cytokine ELISA (GRO-α, MCP-1, IL-6), MyD88- EOC cells; format: cell-based, human; conditions: increasing concentrations of paclitaxel, 24 h, 48 h, 72 h
Procedure: as §2, §3, §4

MyD88- EOC cells [6] = assay: Cytokine microarray (Fast Quant), MyD88- EOC cells; format: cell-based, human; conditions: 48 h; LPS 10 μg/ml or paclitaxel 20 μM
Procedure: as §6, §7

murine macrophages = conditions: cited from earlier work

CC(=O)O[C@H]1C(=O)[C@@]2(C)[C@H]([C@H](OC(=O)c3ccccc3)[C@]3(O)C[C@H](OC(=O)[C@H](O)[C@@H](NC(=O)c4ccccc4)c4ccccc4)C(C)=C1C3(C)C)[C@]1(OC(C)=O)CO[C@@H]1C[C@@H]2O [paclitaxel]
IL-6 secretion (MyD88+ R182 EOC cells; R182 cells after inhibition of MyD88 expression by RNAi): decreased IL-6 secretion
IL-6 production (MyD88+ R182 EOC cells; wild type R182 cells, LPS 10 μg/ml or paclitaxel 2 μM): high levels of IL-6
caspase activity (normal OSE cells): Significant increase
XIAP levels (MyD88+ cells; 2 h post-treatment): increased
phosphorylated Akt (pAkt) (MyD88+ cells; 4 h after treatment): significant increase
levels of total Akt (MyD88+ cells; after paclitaxel treatment): no change
caspase-3/7 activity (A2780 and CP70 EOC cells; cells transfected with pUNO-hMyD88, 2 μM paclitaxel): no changes
caspase-3/7 activity (A2780 and CP70 EOC cells; wt cells, 2 μM paclitaxel): significant increase
IL-6 production (MyD88+ EOC cells [1]): significant increase
proliferation in culture upon TLR-4 ligation (MyD88+ EOC cells [2]): proliferate in culture
caspase-3/7 activity (MyD88- EOC cell lines): significant increase
secretion of IL-4, IL-12 and IFN-γ (MyD88+ EOC cells [3]): neither MyD88^+ nor MyD88^− EOC cells secreted detectable levels
secretion of IL-6, IL-8 and RANTES (MyD88+ EOC cells [3]): increased secretion
caspase-3/7 activity (MyD88+ EOC cells [4]): no significant change
caspase-3/7 activity (A2780 EOC cells): significant increase
IL-6 levels (MyD88- EOC cells [5]): did not affect
secretion of IL-4, IL-12 and IFN-γ (MyD88- EOC cells [6]): neither MyD88^+ nor MyD88^− EOC cells secreted detectable levels
secretion of IL-6, IL-8 or RANTES (MyD88- EOC cells [6]): neither constitutive secretion nor LPS- or paclitaxel-induced
secretion of inflammatory cytokines, including TNFα, IL-6 and IL-8 (murine macrophages; TLR-4 and MyD88 dependent): induces the secretion of inflammatory cytokines
macrophage activation (murine macrophages; studies by Ding et al): activates murine macrophages

N.N.O=C([O-])C1(C(=O)[O-])CCC1.[Pt+2] [carboplatin]
sensitivity (apoptosis by caspase-3/7 activity) (A2780 EOC cells; A2780 transfected with MyD88): retained its sensitivity
caspase-3/7 activity (A2780 EOC cells): significant increase
